Structures are written as SMILES.

The target of assay [1] is T1, Kelch-like ECH-associated protein 1/Bromodomain-containing protein 4 (Homo sapiens, UniProt O60885+Q14145). Put plainly: PROTAC activity at Keap1/BRD4 in human MDA-MB-231 cells assessed as degradation of BRD4 measured after 10 hrs. The format is cell-based.
Assay [2] has as its target T1, Kelch-like ECH-associated protein 1/Bromodomain-containing protein 4. Nature of the assay: PROTAC activity at Keap1/BRD4 in human MDA-MB-231 cells assessed as degradation of BRD4 measured after 5 hrs. In kind it is cell-based.
Assay [3] in a line: Antiviral activity against IAV WSN/33 infected in luciferase tagged HEK293T cells assessed as suppression of de novo viral replication incubated for 24 hr. The format is functional, cell-based. The conditions noted are these: Influenza A virus, WSN/33, HEK-293T.
The target of assay [4] is von Hippel-Lindau disease tumor suppressor/Estrogen receptor (Homo sapiens, UniProt P03372+P40337). Put plainly: PROTAC activity at VHL/ERalpha in human MCF7 cells assessed as degradation of ERalpha. The format is cell-based.
Chain of von Hippel-Lindau disease tumor suppressor/Estrogen receptor (P03372 whole entry): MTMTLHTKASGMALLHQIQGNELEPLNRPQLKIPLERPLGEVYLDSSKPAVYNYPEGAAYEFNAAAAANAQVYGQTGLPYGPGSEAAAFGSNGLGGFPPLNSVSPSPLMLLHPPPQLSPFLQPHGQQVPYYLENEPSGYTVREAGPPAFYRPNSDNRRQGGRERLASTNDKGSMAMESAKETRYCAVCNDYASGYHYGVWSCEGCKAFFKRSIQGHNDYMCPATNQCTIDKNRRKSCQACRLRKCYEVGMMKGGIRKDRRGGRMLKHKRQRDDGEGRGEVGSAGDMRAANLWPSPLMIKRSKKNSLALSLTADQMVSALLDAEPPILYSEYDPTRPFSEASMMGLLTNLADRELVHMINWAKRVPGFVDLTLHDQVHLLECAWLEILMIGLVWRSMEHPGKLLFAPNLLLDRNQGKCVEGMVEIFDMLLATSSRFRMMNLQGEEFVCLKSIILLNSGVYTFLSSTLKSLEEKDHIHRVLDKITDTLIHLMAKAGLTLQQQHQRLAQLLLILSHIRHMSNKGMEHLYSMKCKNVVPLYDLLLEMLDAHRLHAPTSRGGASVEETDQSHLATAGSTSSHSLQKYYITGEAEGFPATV
Chain of von Hippel-Lindau disease tumor suppressor/Estrogen receptor (P40337 whole entry): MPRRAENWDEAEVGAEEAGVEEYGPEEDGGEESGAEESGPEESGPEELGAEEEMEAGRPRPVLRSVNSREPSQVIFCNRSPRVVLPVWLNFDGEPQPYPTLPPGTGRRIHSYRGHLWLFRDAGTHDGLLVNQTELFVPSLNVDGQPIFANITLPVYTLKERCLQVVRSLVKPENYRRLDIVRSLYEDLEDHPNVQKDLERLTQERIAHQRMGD
Assay [5] concerns the target von Hippel-Lindau disease tumor suppressor/G-protein coupled estrogen receptor 1 (Homo sapiens, UniProt Q99527+P40337). Nature of the assay: PROTAC activity at VHL/GPER (unknown origin) assessed as degradation of GPER. The format is protein assay.
For assay [6], the system named is MCF7. Nature of the assay: Cytotoxicity against human MCF7 cells by inducing cell cycle arrest incubated for 30 mins measured by FacScallibur flow cytometric analysis. The format is functional, cell-based. The conditions noted are these: MCF7, 0.5 h. Background: Flow cytometry measures light scatter and fluorescence of single cells or particles in a stream.
A further assay relates to SK-BR-3. Put plainly: Cytotoxicity against human SK-BR-3 cells by inducing cell cycle arrest incubated for 30 mins measured by FacScallibur flow cytometric analysis. The format is functional, cell-based. The conditions noted are these: SK-BR-3, 0.5 h.
A further assay concerns LNCaP. Put plainly: Cytotoxicity against human LNCap cells. The format is functional, cell-based.
The target of assay [7] is Kelch-like ECH-associated protein 1/Cyclin-dependent kinase 9 (Homo sapiens, UniProt P50750+Q14145). Nature of the assay: PROTAC activity at Keap1/CDK9 in human MOLT4 cells measured after 16 hrs. The format is cell-based. The conditions noted are these: molt-4.
Chain of Kelch-like ECH-associated protein 1/Cyclin-dependent kinase 9 (P50750 whole entry): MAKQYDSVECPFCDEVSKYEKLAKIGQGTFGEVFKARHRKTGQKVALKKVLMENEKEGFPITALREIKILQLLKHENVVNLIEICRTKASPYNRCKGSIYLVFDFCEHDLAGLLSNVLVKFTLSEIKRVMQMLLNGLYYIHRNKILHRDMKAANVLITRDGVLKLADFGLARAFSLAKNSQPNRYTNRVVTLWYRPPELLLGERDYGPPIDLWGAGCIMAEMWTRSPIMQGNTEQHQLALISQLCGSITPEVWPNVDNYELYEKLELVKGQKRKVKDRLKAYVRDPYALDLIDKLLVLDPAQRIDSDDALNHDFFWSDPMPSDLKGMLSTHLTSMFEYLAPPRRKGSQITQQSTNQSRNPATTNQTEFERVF
Chain of Kelch-like ECH-associated protein 1/Cyclin-dependent kinase 9 (Q14145 whole entry): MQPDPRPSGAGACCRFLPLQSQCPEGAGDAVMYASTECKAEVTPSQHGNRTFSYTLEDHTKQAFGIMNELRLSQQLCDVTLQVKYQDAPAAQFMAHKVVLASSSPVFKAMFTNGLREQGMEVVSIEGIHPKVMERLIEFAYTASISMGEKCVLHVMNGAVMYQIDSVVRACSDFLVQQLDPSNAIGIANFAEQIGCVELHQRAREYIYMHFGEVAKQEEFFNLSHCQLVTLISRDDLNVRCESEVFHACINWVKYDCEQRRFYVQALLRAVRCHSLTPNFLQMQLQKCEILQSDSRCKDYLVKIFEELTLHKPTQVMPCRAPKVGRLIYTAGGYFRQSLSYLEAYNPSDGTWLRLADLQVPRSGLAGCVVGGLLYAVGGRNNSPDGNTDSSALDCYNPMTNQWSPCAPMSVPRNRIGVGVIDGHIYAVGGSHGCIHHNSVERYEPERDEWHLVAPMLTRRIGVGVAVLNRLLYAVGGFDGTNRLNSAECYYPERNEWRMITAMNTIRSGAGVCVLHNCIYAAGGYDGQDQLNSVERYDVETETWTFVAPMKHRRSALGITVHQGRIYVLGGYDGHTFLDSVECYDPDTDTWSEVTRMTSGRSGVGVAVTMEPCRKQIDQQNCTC
The test system of another assay is CWR22R. Put plainly: Cytotoxicity against human 22Rv1 cells. In kind it is functional, cell-based.
Another assay relates to DU-145. Put plainly: Cytotoxicity against human DU-145 cells. The format is functional, cell-based.
The target of assay [8] is T2, von Hippel-Lindau disease tumor suppressor/3-hydroxy-3-methylglutaryl-coenzyme A reductase (Homo sapiens, UniProt P04035+P40337). Put plainly: PROTAC activity at VHL/HMGCR in human HepG2 cells assessed as degradation of HMGCR measured at 1 uM after 16 hrs relative to control. The format is cell-based.
Target sequence in this assay (P40337 whole entry, looked up, one chain of several): as the sequence (P40337 whole entry) above
Assay [9] addresses T3, 3-hydroxy-3-methylglutaryl-coenzyme A reductase (Homo sapiens, UniProt P04035).
T3 sequence (P04035 whole entry): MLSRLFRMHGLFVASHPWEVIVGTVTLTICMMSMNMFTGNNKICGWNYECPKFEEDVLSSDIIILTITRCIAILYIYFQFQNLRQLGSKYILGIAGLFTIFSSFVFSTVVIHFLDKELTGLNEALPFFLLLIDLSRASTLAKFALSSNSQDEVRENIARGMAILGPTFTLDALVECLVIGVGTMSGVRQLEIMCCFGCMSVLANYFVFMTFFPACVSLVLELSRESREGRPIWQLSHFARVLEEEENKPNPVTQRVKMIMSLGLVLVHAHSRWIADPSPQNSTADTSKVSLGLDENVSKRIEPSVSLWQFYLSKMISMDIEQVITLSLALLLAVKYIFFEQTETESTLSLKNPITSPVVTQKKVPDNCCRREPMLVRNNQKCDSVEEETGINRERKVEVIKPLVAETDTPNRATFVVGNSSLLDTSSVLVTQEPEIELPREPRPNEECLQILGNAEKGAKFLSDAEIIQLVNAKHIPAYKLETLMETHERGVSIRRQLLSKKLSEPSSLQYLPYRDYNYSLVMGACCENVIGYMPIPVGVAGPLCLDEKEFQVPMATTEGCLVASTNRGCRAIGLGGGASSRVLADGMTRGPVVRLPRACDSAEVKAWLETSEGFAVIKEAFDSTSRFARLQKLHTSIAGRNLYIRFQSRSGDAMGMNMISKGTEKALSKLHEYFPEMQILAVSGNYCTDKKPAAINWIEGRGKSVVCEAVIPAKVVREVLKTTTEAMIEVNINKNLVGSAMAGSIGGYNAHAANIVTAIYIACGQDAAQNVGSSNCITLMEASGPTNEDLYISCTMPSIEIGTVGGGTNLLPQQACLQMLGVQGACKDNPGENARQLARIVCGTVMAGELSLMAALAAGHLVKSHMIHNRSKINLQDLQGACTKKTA
Put plainly: Inhibition of HMGCR (unknown origin).

For assay [10], the target named is T3, 3-hydroxy-3-methylglutaryl-coenzyme A reductase. Nature of the assay: Degradation of HMGCR (unknown origin) expressed in CHO-7 cells. In kind it is cell-based.
Assay [11] has as its system MCF7. Nature of the assay: cells. The conditions noted are these: Homo sapiens, MCF7, 72 h.
Description: Antiproliferative activity against human MCF7 cells incubated for 72 hrs by MTT assay
Assay [12] deals with T4, Protein cereblon/Protein deacetylase HDAC6 (Homo sapiens, UniProt Q9UBN7+Q96SW2). Put plainly: PROTAC activity at CRBN/HDAC6 (unknown origin) assessed as degradation of HDAC6. In kind it is protein assay.
Target sequence in this assay (Q9UBN7 whole entry): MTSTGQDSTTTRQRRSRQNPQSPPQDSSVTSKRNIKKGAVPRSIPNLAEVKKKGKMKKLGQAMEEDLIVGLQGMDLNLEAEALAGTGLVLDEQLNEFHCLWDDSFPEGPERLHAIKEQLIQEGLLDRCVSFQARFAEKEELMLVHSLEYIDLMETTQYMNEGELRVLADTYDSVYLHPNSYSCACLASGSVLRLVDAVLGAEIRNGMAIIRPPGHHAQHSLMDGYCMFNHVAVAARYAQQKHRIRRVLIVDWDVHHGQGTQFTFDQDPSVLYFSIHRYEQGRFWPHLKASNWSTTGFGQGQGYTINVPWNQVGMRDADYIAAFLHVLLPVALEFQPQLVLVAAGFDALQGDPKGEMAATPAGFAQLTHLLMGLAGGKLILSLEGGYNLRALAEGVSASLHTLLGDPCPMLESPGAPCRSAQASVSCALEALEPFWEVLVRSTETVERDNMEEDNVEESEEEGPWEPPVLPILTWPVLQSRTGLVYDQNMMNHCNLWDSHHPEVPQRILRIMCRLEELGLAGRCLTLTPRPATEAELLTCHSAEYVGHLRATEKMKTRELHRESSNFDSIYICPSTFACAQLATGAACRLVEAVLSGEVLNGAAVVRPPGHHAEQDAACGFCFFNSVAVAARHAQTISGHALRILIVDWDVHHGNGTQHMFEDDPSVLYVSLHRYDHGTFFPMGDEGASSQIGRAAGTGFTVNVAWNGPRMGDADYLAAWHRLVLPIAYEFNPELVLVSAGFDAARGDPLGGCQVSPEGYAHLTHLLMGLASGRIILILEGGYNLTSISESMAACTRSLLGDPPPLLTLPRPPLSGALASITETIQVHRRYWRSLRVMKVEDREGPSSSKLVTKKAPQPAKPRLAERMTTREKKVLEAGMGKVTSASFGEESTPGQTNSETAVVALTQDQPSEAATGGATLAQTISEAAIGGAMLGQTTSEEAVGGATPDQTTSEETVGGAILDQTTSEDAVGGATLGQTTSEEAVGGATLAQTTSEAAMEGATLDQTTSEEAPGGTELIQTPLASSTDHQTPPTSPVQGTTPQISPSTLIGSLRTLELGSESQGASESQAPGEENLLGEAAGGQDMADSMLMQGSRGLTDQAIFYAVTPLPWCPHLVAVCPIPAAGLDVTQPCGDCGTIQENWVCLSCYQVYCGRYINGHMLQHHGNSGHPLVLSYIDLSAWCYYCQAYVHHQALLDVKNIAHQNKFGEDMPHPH
Target sequence in this assay (Q96SW2 whole entry): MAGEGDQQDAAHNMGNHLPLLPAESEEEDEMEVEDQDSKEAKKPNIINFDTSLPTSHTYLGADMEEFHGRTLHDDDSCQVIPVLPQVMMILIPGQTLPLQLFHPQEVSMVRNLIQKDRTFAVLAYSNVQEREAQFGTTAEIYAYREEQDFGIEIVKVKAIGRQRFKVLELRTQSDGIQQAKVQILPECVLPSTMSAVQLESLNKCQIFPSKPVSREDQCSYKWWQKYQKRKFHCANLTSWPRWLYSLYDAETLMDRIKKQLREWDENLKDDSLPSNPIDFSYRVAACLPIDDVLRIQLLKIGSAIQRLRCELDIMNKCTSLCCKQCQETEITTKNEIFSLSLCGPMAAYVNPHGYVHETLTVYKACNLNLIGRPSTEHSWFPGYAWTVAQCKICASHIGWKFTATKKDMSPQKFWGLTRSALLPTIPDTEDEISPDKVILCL
The target in assay [13] is T4, Protein cereblon/Protein deacetylase HDAC6. Nature of the assay: PROTAC activity at CRBN/HDAC6 (unknown origin) assessed as degradation of HDAC6 relative to control. The format is protein assay.
Target sequence in this assay (Q96SW2 whole entry, looked up): as the sequence (Q96SW2 whole entry) above
Target sequence in this assay (Q9UBN7 whole entry, looked up): as the sequence (Q9UBN7 whole entry) above
The target of assay [14] is T2, von Hippel-Lindau disease tumor suppressor/3-hydroxy-3-methylglutaryl-coenzyme A reductase. Put plainly: PROTAC activity at VHL/recombinant HMGCR in human HepG2 cells assessed as degradation of HMGCR measured at 0.1 uM after 16 hrs relative to control. The format is cell-based.
Target sequence in this assay (P40337 whole entry, looked up, one chain of several): as the sequence (P40337 whole entry) above
Assay [15] has the same target. Nature of the assay: PROTAC activity at VHL/recombinant HMGCR in human Insig-depletion HepG2 cells assessed as degradation of HMGCR measured after 16 hrs. In kind it is cell-based.
Target sequence in this assay (P40337 whole entry, one chain of several): as the sequence (P40337 whole entry) above
The target is the same in assay [16]. Nature of the assay: PROTAC activity at VHL/recombinant HMGCR in human Insig-depletion HepG2 cells assessed as degradation of HMGCR measured at 1 uM after 16 hrs relative to control. The format is cell-based.
Target sequence in this assay (P40337 whole entry, looked up, one chain of several): as the sequence (P40337 whole entry) above

T1 sequence (Q14145 whole entry, looked up, other chains not shown): as the sequence (Q14145 whole entry) above
Chain of von Hippel-Lindau disease tumor suppressor/G-protein coupled estrogen receptor 1 (Q99527 whole entry): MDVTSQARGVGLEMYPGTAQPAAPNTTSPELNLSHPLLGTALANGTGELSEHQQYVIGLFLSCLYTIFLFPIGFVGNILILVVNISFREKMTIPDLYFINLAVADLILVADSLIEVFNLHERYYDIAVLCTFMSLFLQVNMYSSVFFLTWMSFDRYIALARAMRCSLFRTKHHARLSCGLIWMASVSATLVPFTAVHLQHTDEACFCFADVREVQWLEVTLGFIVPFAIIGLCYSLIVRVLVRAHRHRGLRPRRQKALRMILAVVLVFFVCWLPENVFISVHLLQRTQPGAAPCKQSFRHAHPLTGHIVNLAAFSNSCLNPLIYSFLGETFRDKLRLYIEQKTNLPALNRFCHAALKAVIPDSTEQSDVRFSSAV
Chain of von Hippel-Lindau disease tumor suppressor/G-protein coupled estrogen receptor 1 (P40337 whole entry): as the sequence (P40337 whole entry) above

As to `CC1=C(O)C(=O)C=C2C1=CC=C1[C@@]2(C)CC[C@@]2(C)[C@@H]3C[C@](C)(C(=O)NCCCOCCOCCOCCCNC(=O)C[C@@H]4N=C(c5ccc(Cl)cc5)c5c(sc(C)c5C)-n5c(C)nnc54)CC[C@]3(C)CC[C@]12C`, the DC50 is 9.6 nM in assay [1] and 29 nM in assay [2].
On to `C/C(=C\CC/C(C)=C/C[C@]1(O)C(=O)c2c(O)cc(C)c3c(O)c(C)c(O)c(c23)C1=O)CC/C=C(\CO)CC[C@@H](O)C(C)(C)O`, for which the IC50 in assay [3] was 6600 nM.
On to `Cc1ncsc1-c1ccc(CNC(=O)[C@@H]2C[C@@H](O)CN2C(=O)[C@@H](NC(=O)COCCOCCOCCOCC(=O)NCCOCCOCCOCCOCCOCCOCCOCCOCCC(=O)O[C@H]2CC[C@H]3[C@@H]4CCc5cc(O)ccc5[C@H]4CC[C@]23C)C(C)(C)C)cc1`, for which the DC50 in assay [4] stood at 10000 nM; in [5], 100000 nM. The concentration for half-maximal inhibition (IC50) turned out to be 17000 nM in the assay on MCF7 [6] and 11100 nM in the assay on SK-BR-3.
On to `COc1cc(/C=C/C(=O)N2CCC=CC2=O)cc(OC)c1OCCN1CCN(C(=O)CN2CCC(C(=O)Nc3ncc(SCc4ncc(C(C)(C)C)o4)s3)CC2)CC1`, for which the EC50 in the assay on LNCaP was determined as 3.2 nM; in the assay on CWR22R, 6.4 nM; with DU-145, 8.5 nM. In [7], this molecule registered a DC50 of 9 nM.
For the molecule `Cc1ncsc1-c1ccc(CNC(=O)[C@@H]2C[C@@H](O)CN2C(=O)[C@H](NC(=O)CCCCCCCCCCNC(=O)OC2C[C@@H](C)C=C3C=C[C@H](C)[C@H](CC[C@@H]4C[C@@H](O)CC(=O)O4)[C@H]32)C(C)(C)C)cc1` (stereo partly specified), the Emax in [8] amounted to 56%. This molecule had an IC50 in assay [9] of 1300 nM.
Consider `C=CCC(O)(CC=C)CCC[C@@H](C)[C@H]1CC[C@H]2[C@@H]3[C@@H](O)C=C4C(C)(C)[C@@H](O)CC[C@]4(C)[C@H]3CC[C@]12C`, for which the DC50 in [10] was found to be 390 nM.
In the assay on MCF7 [11], `COc1c(O)cc(O)c2c(=O)cc(-c3ccccc3)oc12` [WOGONIN] showed a half-maximal inhibitory concentration (IC50) of 30 nM.
On to `O=C(CCCO/N=C1/C(=C2/C(=O)N(Cc3cn(CCOCCNc4cccc5c4C(=O)N(C4CCC(=O)NC4=O)C5=O)nn3)c3ccccc32)Nc2ccccc21)NO` (stereo unspecified), for which the DC50 in [12] was found to be 109 nM. For the same molecule, the maximum response (Emax) in assay [13] amounted to 88%.
In turn, `Cc1ncsc1-c1ccc(CNC(=O)[C@@H]2C[C@@H](O)CN2C(=O)[C@H](NC(=O)CCCCCCCCCCNC(=O)OC2C[C@@H](C)C=C3C=C[C@H](C)[C@H](CC[C@@H](O)C[C@@H](O)CC=O)[C@H]32)C(C)(C)C)cc1` (stereo partly specified) yielded an IC50 in assay [9] of 250 nM. The values for the maximal response (Emax) in assay [14] and in [16] were 56% and 76%, respectively. Moreover, the DC50 in assay [15] is 120 nM.

Broadly, the IC50 is the midpoint of a concentration-inhibition curve. Broadly, the EC50 is the concentration giving half of the maximal effect. Higher therefore signals lower potency in that assay. The term Emax denotes the greatest response seen or fitted, relative to the assay's reference.
